Source: patent US8415158B2, “Compositions and methods useful for culturing differentiable cells” (ViaCyte, Inc., priority 2006, dated 2013)

Assays:
BG02 cells = test: Suspension culture of BG02 cells with and without apoptosis inhibitor, cell counting; type: cell-based, human
Protocol: Starting cultures of BG02 cells were maintained in DC-HAIF medium on dishes coated with 1:200 matrigel, as described herein and were split by passaging with ACCUTASE™. To initiate suspension culture, BG02 cells were disaggregated with ACCUTASE™ and placed in low attachment 6-well trays at a density of 1.6, 3, or 6×10^5 cells/ml (0.5, 1, or 2×10^6 cells in 3 ml volumes) in DC-HAIF medium. The trays were placed on a rotating platform at 80-100 rpm in a humidified incubator with 5% CO2. Under these conditions hESCs coalesced into small spheres of morphologically viable cells within 24 hours.
To attenuate the loss of cells after initial passaging in suspension, an inhibitor of apoptosis was added to the medium. Cells were passaged as in Example 12, except that Y-27632, an inhibitor of p160-Rho-associated coiled-coil kinase (ROCK), was added to the medium.
Suspension aggregates of BG02 cells were formed by seeding 2×10^6 single cells in 6-well dishes in 3 ml DC-HAIF medium, at 100 rpm on a rotating platform in an incubator (Table 2, Experiment A). 10 μM Y27632 ROCK inhibitor was added to test wells for the course of the experiment and the cultures observed daily and counted after 24 hours (day 1) and after 4 or 5 days. […] Cell counting confirmed that more viable cells were present in the presence of inhibitor (Table 2, Experiment A). This difference in cell number persisted throughout the course of the culture period, with more cells also observed on day 4, compared to cultures without inhibitor. As with previous suspension culture experiments, cells exposed to Y27632 could also be serially passaged, and maintained in an undifferentiated state (not shown).
As previous experiments had shown that growth rates of cells in suspension and adherent culture were similar after the initial 24 hours, an experiment was performed where Y27632 was removed after this initial period (Table 2, Experiment B). […] 1.4×10^7 (+Y27632) and 1.8×10^7 (+/−Y27632) viable cells were generated when inhibitor was present compared to 3.9×10^6 cells in untreated cultures. This analysis confirmed that Y27632 had the largest impact during the first 24 hours of suspension hESC culture.
Because of the enhanced survival and aggregation observed in the presence of Y27632, an experiment was performed to examine if it was possible to reduce the number of cells used to seed suspension cultures (Table 2, Experiment C). […] To determine if addition of a ROCK inhibitor would allow cell seeding at lower densities, a range of cell concentrations (from about 2×10^6 total cells down to about 1×10^5 total cells was used to seed suspension cultures in 6-well trays cells in 3 ml DC-HAIF. 10 μM Y27632 was added to all conditions, and the cell number and viability assessed on day 5. Successful aggregation and expansion was observed even at low seeding densities. An approxiate 13 fold expansion of viable cells was observed even cultures that were only seeded with 1×10^5 cells. Inhibition of ROCK with Y27632 therefore facilitated initial survival of hESCs at much lower densities in this suspension system.

ES cells = test: Suspension cultures in various media, cell counting; type: cell-based; conditions: added to HAIF, HAI and HI conditions
Protocol: To determine if suspensions of ES cells could be cultured in the absence of FGF2 and/or Activin A, ES cells were cultured in a variety of media, with and without these factors. […] In addition, the cells in each media were successfully passaged with no morphological signs of differentiation.

ErbB2 = target: T1, ErbB2 (Homo sapiens, UniProt P04626); test: Western blotting of ErbB2 autophosphorylation in starved/heregulin pulsed hESCs; type: cell-based; conditions: starved/heregulin pulsed hESCs growing in DC-HAIF
T1 construct: endogenous in cells; host or cells: human embryonic stem cells (hESCs) grown in DC-HAIF
T1 sequence (P04626 23-1255): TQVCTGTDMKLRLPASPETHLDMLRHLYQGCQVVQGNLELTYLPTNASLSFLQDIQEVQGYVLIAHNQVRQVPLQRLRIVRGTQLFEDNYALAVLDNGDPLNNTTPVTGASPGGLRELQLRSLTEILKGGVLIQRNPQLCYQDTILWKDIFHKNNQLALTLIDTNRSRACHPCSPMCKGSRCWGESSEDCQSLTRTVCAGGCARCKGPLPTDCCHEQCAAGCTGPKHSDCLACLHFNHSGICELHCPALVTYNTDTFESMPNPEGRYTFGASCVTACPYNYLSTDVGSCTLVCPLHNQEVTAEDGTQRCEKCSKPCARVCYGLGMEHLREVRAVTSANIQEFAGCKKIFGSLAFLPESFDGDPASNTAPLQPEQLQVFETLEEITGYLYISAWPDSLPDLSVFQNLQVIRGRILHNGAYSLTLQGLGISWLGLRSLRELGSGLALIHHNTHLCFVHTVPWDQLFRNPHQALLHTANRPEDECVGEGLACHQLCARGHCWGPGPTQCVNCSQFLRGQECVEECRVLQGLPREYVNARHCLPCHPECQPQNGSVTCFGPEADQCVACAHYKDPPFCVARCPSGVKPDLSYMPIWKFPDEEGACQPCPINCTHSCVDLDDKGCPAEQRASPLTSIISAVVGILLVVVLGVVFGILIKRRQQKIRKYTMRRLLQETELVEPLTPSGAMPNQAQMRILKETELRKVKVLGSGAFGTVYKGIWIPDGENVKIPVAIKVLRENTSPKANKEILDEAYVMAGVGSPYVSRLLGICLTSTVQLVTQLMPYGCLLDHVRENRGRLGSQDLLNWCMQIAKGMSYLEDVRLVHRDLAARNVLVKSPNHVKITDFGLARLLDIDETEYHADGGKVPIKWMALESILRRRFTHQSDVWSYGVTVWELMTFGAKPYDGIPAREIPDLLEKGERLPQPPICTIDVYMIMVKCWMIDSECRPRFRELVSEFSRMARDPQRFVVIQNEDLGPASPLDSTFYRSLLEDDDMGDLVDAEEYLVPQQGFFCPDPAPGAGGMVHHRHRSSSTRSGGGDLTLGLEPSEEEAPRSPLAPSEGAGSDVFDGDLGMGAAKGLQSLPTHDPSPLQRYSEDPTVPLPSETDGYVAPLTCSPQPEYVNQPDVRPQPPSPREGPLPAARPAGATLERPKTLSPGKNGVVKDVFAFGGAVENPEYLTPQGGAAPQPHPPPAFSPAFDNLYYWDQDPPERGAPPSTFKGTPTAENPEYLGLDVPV
From the text: (§1) Colony and cell-counting assays confirmed that LongR3-IGF1 and HRG played the major roles in self-renewal and proliferation in the context of one of the embodiments of the present invention (FIGS. 6D, 6E). Phosphorylation of IGF1R, IR, FGF2a, ErbB2, and ErbB3 was also observed in both steady-state DC-HAIF cultures, and in starved cultures that were pulsed with DC-HAIF (FIG. 6F).

BG02 hESCs = test: Proliferation of hESCs growing in conditioned medium with AG825; type: cell-based, human; conditions: 50 μM (FIG. 6A)
From the text: as §1

hESCs = test: Titration of insulin and IGF1 at physiological levels, hESC proliferation; type: cell-based, human; conditions: titrated from about 0.2 to about 200 ng/ml, cells counted after 5 days
Protocol: Essentially all of the reported culture conditions for hESCs to date include supraphysiological levels of insulin, which can stimulate both IR and IGF1R. To distinguish the activities that insulin and insulin-substitutes exert, compared to IGF1, hESCs are cultured in defined media conditions in physiological levels of these growth factors. The concentrations of insulin and IGF1 are titrated from about 0.2 to about 200 ng/ml and cell proliferation is monitored by counting cells after 5 days. Cultures that expand successfully are serially passaged 5 times.

R1 mouse ES cells = test: Proliferation of R1 mouse ES cells with ErbB tyrosine kinase inhibitors, alkaline phosphatase staining; type: cell-based
Protocol: AG1478 and AG879 were used to examine the role of HRG/ErbB signaling in mouse ES cells. R1 mouse ES cells were maintained in standard conditions in DMEM, 10% FBS, 10% KSR, 0.5 U/ml penicillin, 0.5 U/ml streptomycin, 1×NEAA, 1 mM sodium pyruvate, 1000 U/ml LIF (ESGRO), 0.1 mM 13-ME, and were passaged with 0.5% trypsin/EDTA. 2×10^5 cells/well were plated in 6 well trays on […]™ diluted at 1:1000. The day after plating, DMSO (carrier control), 1-50 μM AG1478, or 1-50 μM AG879 was added with fresh medium. The cells were cultured an additional 8 days, with daily media changes. The cultures were then fixed and stained for alkaline phosphatase activity.

BG01v cells = test: Proliferation of BG01v cells with ErbB tyrosine kinase inhibitors, alkaline phosphatase staining; type: cell-based; conditions: 5 days
Protocol: To examine the effect of known inhibitors of ErbB tyrosine kinases in hESCs, BG01 v cells were plated in 6 well trays on […]™ diluted at 1:1000, in defined culture medium (DC) containing 100 ng/ml LongR3-IGF1, 8 ng/ml FGF2 and 1 ng/ml Activin A. On the next day, DMSO (carrier control), 50 nM-20 μM AG1478 (an ErbB1 inhibitor), or 100 nM-20 μM AG879 (an ErbB2 inhibitor) was added with fresh medium. The cells were cultured for an additional 5 days, with daily media changes. The cultures were then fixed and stained for alkaline phosphatase activity.

[1] = Expt. A, seeding 2 × 10^6, p0, day 1
[2] = Expt. A, seeding 2 × 10^6, p0, day 4
[3] = Expt. B, seeding 2 × 10^6, p0, day 1
[4] = Expt. B, seeding 2 × 10^6, p0, day 5
[5] = Expt. B, seeding 2 × 10^6, p0, day 5, Y27632 removed after 24 hours
[6] = Expt. C, seeding 1 × 10^6, p0, day 1
[7] = Expt. C, seeding 1 × 10^6, p0, day 5
[8] = Expt. C, seeding 2 × 10^6, p0, day 1
[9] = Expt. C, seeding 2 × 10^6, p0, day 5
[10] = Expt. C, seeding 2.5 × 10^5, p0, day 1
[11] = Expt. C, seeding 2.5 × 10^5, p0, day 5
[12] = Expt. C, seeding 5 × 10^5, p0, day 1
[13] = Expt. C, seeding 5 × 10^5, p0, day 5
[14] = Expt. C, seeding 10^5, p0, day 1
[15] = Expt. C, seeding 10^5, p0, day 5

## C[C@@H](N)[C@H]1CC[C@H](C(=O)Nc2ccncc2)CC1 [Y27632]
BG02 cells; 10 μM, compared to medium without inhibitor
  size of aggregates in initial aggregation phase of suspension culture: much larger aggregates were formed
BG02 cells; 10 μM, first 24 hours
  initial survival and aggregation of hESCs after initial passage: enhanced initial survival and aggregation of hESCs
BG02 cells; Expt. A, 10 μM, versus without inhibitor
  cells observed when the aggregates were split again: almost twice as many cells
BG02 cells; Expt. A, p1, day 4
  Cell counts: total: 4.6 × 10^6 cells
  Cell counts: viable: 4.2 × 10^6 cells
  viable cells, %: 91%
BG02 cells; [1]
  Cell counts: total: 1.6 × 10^6 cells
  Cell counts: viable: 1.2 × 10^6 cells
  viable cells, %: 74%
BG02 cells; [2]
  Cell counts: total: 7.8 × 10^6 cells
  Cell counts: viable: 7.1 × 10^6 cells
  viable cells, %: 91%
BG02 cells; [3]
  Cell counts: total: 1.9 × 10^6 cells
  Cell counts: viable: 1.4 × 10^6 cells
  viable cells, %: 73%
BG02 cells; [4]
  Cell counts: total: 1.5 × 10^7 cells
  Cell counts: viable: 1.4×10^7 cells
  viable cells, %: 92%
BG02 cells; [5]
  Cell counts: total: 1.9 × 10^7 cells
  Cell counts: viable: 1.8×10^7 cells
  viable cells, %: 96%
BG02 cells; [6]
  Cell counts: total: 8.7 × 10^5 cells
  Cell counts: viable: 6.6 × 10^5 cells
  viable cells, %: 76%
BG02 cells; [7]
  Cell counts: total: 8.6 × 10^6 cells
  Cell counts: viable: 7.8 × 10^6 cells
  viable cells, %: 91%
BG02 cells; [8]
  Cell counts: total: 1.9 × 10^6 cells
  Cell counts: viable: 1.6 × 10^6 cells
  viable cells, %: 84%
BG02 cells; [9]
  Cell counts: total: 1.4 × 10^7 cells
  Cell counts: viable: 1.2 × 10^7 cells
  viable cells, %: 90%
BG02 cells; [10]
  Cell counts: total: 2.6 × 10^5 cells
  Cell counts: viable: 2.3 × 10^5 cells
  viable cells, %: 91%
BG02 cells; [11]
  Cell counts: total: 2.7 × 10^6 cells
  Cell counts: viable: 2.5 × 10^6 cells
  viable cells, %: 91%
BG02 cells; [12]
  Cell counts: total: 4.6 × 10^5 cells
  Cell counts: viable: 3.5 × 10^5 cells
  viable cells, %: 75%
BG02 cells; [13]
  Cell counts: total: 5.7 × 10^6 cells
  Cell counts: viable: 5.3 × 10^6 cells
  viable cells, %: 93%
BG02 cells; [14]
  Cell counts: total: 6.8 × 10^4 cells
  Cell counts: viable: 5.4 × 10^4 cells
  viable cells, %: 79%
BG02 cells; [15]
  Cell counts: total: 1.4 × 10^6 cells
  Cell counts: viable: 1.3 × 10^6 cells
  viable cells, %: 92%
BG02 cells; seeded with 1×10^5 cells, 10 μM Y27632, day 5
  expansion of viable cells: ~13 fold
ES cells
  yield of cells generated by day 5: increased the yield of cells

## COc1cc(/C=C(\C#N)C(N)=O)cc(CSc2nc3ccccc3s2)c1O [AG825]
ErbB2
  autophosphorylation of ErbB2 at tyrosine-1248: inhibited autophosphorylation
BG02 hESCs
  effect on proliferation of hESCs growing in conditioned medium (CM): significantly inhibited proliferation

## insulin: protein that binds to the insulin receptor
hESCs
  expansion of hESC cultures at physiological levels: do not

## IGF1: insulin-like growth factor
hESCs
  expansion of hESC cultures at physiological levels: support the expansion of hESC cultures

## CC(C)(C)c1cc(/C=C(\C#N)C(N)=S)cc(C(C)(C)C)c1O [AG879]
R1 mouse ES cells; 20 μM, 8 days
  effect on proliferation: may have slowed proliferation
R1 mouse ES cells; 50 μM, 8 days
  effect on cell growth: substantially inhibited cell growth
R1 mouse ES cells; higher for mESCs than for BG01v cells in defined conditions
  concentration required to inhibit proliferation, mESCs relative to BG01v cells: ~10 ×
BG01v cells; 5 μM
  effect on cell growth: substantially inhibited cell growth
BG01v cells; 20 μM
  cell death: caused cell death

## COc1cc2ncnc(Nc3cccc(Cl)c3)c2cc1OC [AG1478]
R1 mouse ES cells; 1-50 μM, 8 days, 10% FBS, 10% KSR, LIF
  effect on cell proliferation: no apparent affect on cell proliferation
BG01v cells; 50 nM-20 μM, DC medium with LongR3-IGF1, FGF2, Activin A
  effect on cell proliferation: neither DMSO nor AG1478 (50 nM-20 μM) had an apparent affect on cell proliferation
